target: T1, Histone acetyltransferase KAT8 (Homo sapiens, UniProt Q9H7Z6); experiment: Inhibition of recombinant N-terminal His6-tagged KAT8 (unknown origin) expressed in Escherichia Coli BL21 DE3 cells assessed as reduction of Co A level using histone H4 substrate after 15 mins by CPM fluorescence assay
T1 sequence (Q9H7Z6 whole entry): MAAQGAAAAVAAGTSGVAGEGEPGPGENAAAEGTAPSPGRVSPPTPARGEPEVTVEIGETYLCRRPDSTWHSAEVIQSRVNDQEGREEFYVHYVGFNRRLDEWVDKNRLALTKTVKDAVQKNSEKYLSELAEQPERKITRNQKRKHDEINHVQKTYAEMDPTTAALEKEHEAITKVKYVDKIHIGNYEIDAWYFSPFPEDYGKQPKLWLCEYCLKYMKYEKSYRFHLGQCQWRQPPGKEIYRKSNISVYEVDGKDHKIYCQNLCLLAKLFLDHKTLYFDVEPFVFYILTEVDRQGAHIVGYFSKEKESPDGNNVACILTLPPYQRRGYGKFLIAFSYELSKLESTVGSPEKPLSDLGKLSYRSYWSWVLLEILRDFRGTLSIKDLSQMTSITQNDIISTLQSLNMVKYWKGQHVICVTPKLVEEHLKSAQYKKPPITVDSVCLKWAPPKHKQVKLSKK

How did the Ki turn out when `CCCCCCCCCCCCCCCc1ccc(O)c(C(=O)O)c1` was run?
Its Ki is 79 µM.

How did the Ki turn out when `CCCCCCCCCCc1cccc(O)c1C(=O)O` was run?
The Ki was 37 µM.

With `CCCCCCCCCCc1ccc(O)c(C(=O)O)c1` as the compound, how does the Ki read?
The Ki was 57 µM.

For `O=C(O)c1c(O)cccc1CCCCCCCCCCCO`, which Ki is on record?
The Ki was 157 µM.
